Source: article PMC7289991, “Population Pharmacokinetics and Limited Sampling Strategy for Therapeutic Drug Monitoring of Polymyxin B in Chinese Patients With Multidrug-Resistant Gram-Negative Bacterial Infections” (Frontiers in Pharmacology, 2020)
Positions of bridges follow the written chain, without caps; N, C: chain ends. Non-standard residues stand in square brackets, D forms with d. Residues, ends and D or L forms follow the SMILES beside them. *: point of attachment. X1 = CC[C@H](C)CCCCC(=O)*; Dab = NCC[C@H](N)C(=O)O

Assays:
[1] = Observed AUC0-12h at steady state (linear-up-log-down method); format: in vivo; conditions: human, 46 patients, steady state (day 4), intravenous, plasma, LC-MS/MS, mean ± spread
Experimental: (§1) Blood samples were obtained after 3 days of therapy. On day 4, one blood sample (2 ml, C0h) was collected immediately at pre-dose, and five to seven blood samples (mainly C0.5h, C1h, C1.5h, C2h, C4h, C6h, and C8h) were collected at pre-next dose into EDTA tubes for each patient. To calculate AUC0–12h, C0h was regarded as C12h for those who hid not obtained C0h. All samples were centrifuged at 3,500×g for 10 min. The supernatant was collected and stored at −80°C until analysis.
Plasma concentrations of polymyxin B were determined using liquid chromatography-tandem mass spectrometry (LC-MS/MS) in the hospital laboratory. The method was previously described by our group ([Wang et al., 2020]). […] The upper limit of quantification was extended to 20 µg/ml for polymyxin B1 and 5.0 µg/ml for polymyxin B2 after four-fold dilution. For precision and accuracy, the intra- and inter-day imprecision of polymyxin B1 and B2 was less than 13.93%, and the inaccuracy ranged from −10.87 to 11.13%. […]
The AUC0-12h of polymyxin B was calculated by the linear-up-log-down method. […] The observed and predicted AUC0-12h were analyzed using the Pearson correlation coefficient (r). […] The determination coefficient (r^2) evaluated the regression level of the equation. […]

[2] = Population pharmacokinetic analysis of polymyxin B in Chinese patients (two-compartment model, Phoenix NLME); format: in vivo, human
Experimental: Patients who were ≥ 18 years of age, received intravenous polymyxin B (sulfate; polymyxin B injection, Shanghai First Biochemical Pharmaceutical Co., Ltd., China) for ≥ 72 hours, and were documented MDR Gram-negative bacterial infections were included. Patients with renal replacement therapy were excluded. Demographic characteristics (age, sex, and body weight), polymyxin B therapy, and laboratory data before polymyxin B TDM were collected from electronic medical records, including alanine aminotransferase (ALT), aspartate aminotransferase (AST), glutamyl transpeptidase (GGT), alkaline phosphatase (ALP), urea nitrogen, serum creatinine (Scr), serum uric acid, serum proteins, serum albumin, total bilirubin (TBIL), direct bilirubin (DBIL), and creatinine clearance (CrCL). CrCL was calculated using the Cockcroft-Gault equation with body weight ([Janmahasatian et al., 2005]).
According to the Chinese package insert, the maintenance dose of polymyxin B was 50 to 100 million units ([…]) twice daily. The loading dose was 100 to 150 million units in clinical practice. The recommended infusion time was one hour but could be lengthened as needed. Polymyxin B treatment including dose, infusion time, and duration of therapy depended on the medical teams.
as §1
Plasma concentrations of polymyxin B were determined using liquid chromatography-tandem mass spectrometry (LC-MS/MS) in the hospital laboratory. The method was previously described by our group ([Wang et al., 2020]). […] The upper limit of quantification was extended to 20 µg/ml for polymyxin B1 and 5.0 µg/ml for polymyxin B2 after four-fold dilution. For precision and accuracy, the intra- and inter-day imprecision of polymyxin B1 and B2 was less than 13.93%, and the inaccuracy ranged from −10.87 to 11.13%. Since polymyxin B1 and B2 had similar structures, molecular weight, pharmacological activities, and pharmacokinetic characteristics, the plasma concentration of polymyxin B was summed to derive the total polymyxin B1 and B2 concentrations ([Tam et al., 2011]; [Manchandani et al., 2016a]).
Based on a previously published study ([Avedissian et al., 2019]), the PK parameters were determined by one- and two-compartmental models performed using Phoenix® NLME software (v7.0, Pharsight, Mountain View, CA, USA). Initial PK parameters were estimated by the Naive-pooled model. PK models were estimated by the first-order conditional
where Pi is the PK parameters of the i^th patient, θ is the population PK pharmacokinetic parameters, and ηi is a normally distributed random variable with a mean of 0 and a variance of ω^2. Intra-individual variability (residual error) is described using additive (Cobs = Cpred + ϵ), proportional [Cobs = Cpred × (1+ ϵ)] or mixed (additive + proportional) models, where Cobs and Cpred are the observed and predicted concentrations, and ϵ is an error variable with a mean of 0 and a variance of σ^2. Model assessment criteria included precision of parameter estimates (standard error), goodness-of-fit plots, and likelihood ratio test (−2LL). For the one-compartment model, basic PK parameters were the volume of central compartment distribution (V) and central compartment clearance (Cl). For the two-compartment model, there were two additional parameters as the volume of peripheral compartment distribution (V2) and inter-compartmental clearance (Q). […]

[3] = cited from earlier work
From the text: To date, few studies have been conducted on population PK of polymyxin B ([Kwa et al., 2008]; [Sandri et al., 2013]; [Kubin et al., 2018]; [Manchandani et al., 2018]; [Miglis et al., 2018]). To our best knowledge, this study included the largest samples and most covariates from acutely-ill patients, aimed at evaluating the population PK of polymyxin B and identifying potential factors influencing the PK variability. The result indicated a two-compartment model adequately described population PK of polymyxin B in Chinese patients. Although there were studies performed using the one-compartment ... || The impact of clinical variables on population PK models of polymyxin B was always inconsistent, especially the influence of body weight and CrCL on polymyxin B clearance. […] With a low correlation coefficient (Supplementary Figure 1), this study found CrCL was a statistical covariate of polymyxin B clearance (Equ. 6), which was in agr ...

[4] = two-compartment population PK, 46 patients, intravenous, steady state

CC[C@H](C)CCCCC(=O)N[C@@H](CCN)C(=O)N[C@H](C(=O)N[C@@H](CCN)C(=O)N[C@H]1CCNC(=O)[C@H]([C@@H](C)O)NC(=O)[C@H](CCN)NC(=O)[C@H](CCN)NC(=O)[C@H](CC(C)C)NC(=O)[C@@H](Cc2ccccc2)NC(=O)[C@H](CCN)NC1=O)[C@@H](C)O [polymyxin B, Polymyxin B] (X1-[Dab]T[Dab][Dab][Dab][dF]L[Dab][Dab]T; lactam 4-C)
AUC(0-t) [1]: 43600 ± 27700 ng·h/mL | dCldCrCL, bootstrap median ([2]; 1,000 bootstrap samples): 0.357 | tvCl, bootstrap median ([2]; 1,000 bootstrap samples): 1.771 L/h | tvQ, bootstrap median ([2]; 1,000 bootstrap samples): 14.427 L/h | tvV2, bootstrap median ([2]; 1,000 bootstrap samples): 12.073 L | tvV, bootstrap median ([2]; 1,000 bootstrap samples): 5.960 L | tvV, typical value of volume of central compartment distribution (V), final model estimate ([2]; two-compartment population PK, 46 adult patients, 331 plasma samples, intravenous, steady state (day 4), LC-MS/MS, sum of polymyxin B1 and B2): 6.218 L | tvQ, typical value of inter-compartmental clearance (Q, Cl2), final model estimate [2, 4]: 13.518 L/h | tvV2, typical value of volume of peripheral compartment distribution (V2), final model estimate [2, 4]: 11.922 L | clearance value, renal insufficient group ([3]; CrCL < 80 ml/min, P = 0.06 vs normal function group, ref Thamlikitkul et al. (2017)): 2.0 L/h | clearance value, normal function group ([3]; CrCL ≥ 80 ml/min, ref Thamlikitkul et al. (2017)): 2.5 L/h | polymyxin B CL reported previously (range) ([3]; earlier population PK studies, ref not given): 1.87 to 2.5 L/h | V estimate ([3]; ref Sandri et al. (2013)): 6.35 L
